Consider one substance from patent publication US9956426B2, “Upconverting nanoparticles” (priority 2015, dated 2018).

Series [1] can be described thus: Hydrodynamic size by dynamic light scattering. The conditions noted are these: dynamic light scattering in PBS. It counts as physicochemical. As for the experimental part:
Dynamic light scattering was used to determine that the hydrodynamic size of the 5-ALA-conjugated nanoparticles was about 62 nm as shown in FIG. 6.
(§1) FT-IR spectra were recorded on a Nicolet Nexus FT-IR spectrometer, using the SMART iTR™ for ATR measurements. The upconversion photoluminescence spectra were measured by a SPEX FluoroMax®-3 spectrofluorimeter (Horiba) (spectral resolution of 1 nm, emission slit of 5 nm, and integral period of 0.1 s) excited at 980 nm using a fiber-coupled laser diode introduced to the sample chamber of the spectrofluorimeter. Cells were imaged using a Nikon Eclipse TE 2000 microscope, equipped with a Nuance CCD camera capable of imaging. The light source was a fiber-coupled laser diode emitting at 980 nm, with the fiber introduced through the entrance port of the microscope. The size distribution of the samples was determined by dynamic light scattering (DLS) equipped with a Zetasizer Nano-ZS (He—Ne laser wavelength at 633 nm) and an auto-titrator (Malvern Instruments, Malvern, UK). The absorbance for the MTT experiment and the fluorescence for DCFDA staining experiment was found using a microplate reader (Molecular Devices Co., Menlo Park, Calif.). 5-ALA concentration was monitored by HPLC (Varian ProStar) for loading efficiency data.

Series [2] is described as follows: 5-Aminolevulinic acid loading determination by HPLC. The format is physicochemical. The settings on record: HPLC of supernatants, back-calculation.
Text: FT-IR spectral analysis confirmed that the conjugation of 5-ALA to the nanoparticles was via a hydrazone linkage as shown in panels (d) and (e) of FIG. 7, which show (d) full and (e) detailed spectra for polyacrylic acid-coated upconverting nanoparticles, (PAA-UCNPs), hydrazide-functionalized upconverting nanoparticles (Hyd-UCNPs) and 5-ALA-conjugated upconverting nanoparticles. On the spectrum for Poly(acrylic) acid-functionalized UCNPs (PAA-UCNPs), the peak at 1636 cm^−1 is attributed to the resonance of the carboxyl groups. […]
as §1, with “Cells were imaged using a Nikon Eclipse TE 2000 microscope, equipped with a Nuance CCD camera capable of imaging. The light source was a fiber-coupled laser diode emitting at 980 nm, with the fiber introduced through the entrance port of the microscope.” left out, “5-ALA concentration was monitored by HPLC (Varian ProStar) for loading efficiency data.” left out

For series [3], the system named is HeLa cells. In words: Simulated deep-tissue photodynamic therapy, MTT assay with pork tissue between laser and cells. It counts as cell-based. The conditions noted are these: 100 μg/mL; for cell viability: CW 980 nm 1 W/cm^2, 20 min. The protocol:
Photodynamic therapy of a deep-set tumor condition using the 5-aminolevulinic acid conjugated upconverting nanoparticles with an 80% ytterbium ratio was simulated by placing pieces of pork tissue of varying thickness (representing a patient's flesh) between a near infra-red laser and HeLa cells exposed to the upconverting nanoparticles, as shown in FIG. 12(a). The cells were analyzed for cell viability using an MTT assay. After 20 min. of irradiation at 1 W/cm^2, for all pork thicknesses, the cells exposed the 5-aminolevulinic acid conjugated nanoparticles as disclosed herein had cell viabilities that were reduced significant to the control hydrazide-functionalized upconverting nanoparticles (Hyd-UCNPs). In the absence of pork (0 mm), cell viability was less than 20%, in the presence of 6 mm pork, cell viability was less than 50%, and even with 12 mm pork, cell viability was still reduced to below 80% compared to the control. This establishes and validates the feasibility of using upconverting nanoparticles as a near infra-red-to-red transducer for prodrug photodynamic therapy at a deep-tissue level (up to about 1 cm or greater).
Finally, the red-emitting upconverting nanoparticle system containing an ytterbium ratio of 80% was compared with the known upconverting nanoparticle β/β core/shell red-emitting nanoparticles at a deep tissue level with a biocompatible low power density 0.35 W/cm^2 for laser irradiation. […] The 5-aminolevulinic acid conjugated nanoparticles described herein having an ytterbium ratio of 80% achieved 40% cell death even through 1.2 cm of pork. The ability of the presently-disclosed lanthanide-doped upconverting nanoparticles' to induce significant phototherapeutic effect with such low power excitation yet thick superficial tissue makes it a major step forward in photodynamic therapy materials.
FIGS. 12(a) and 12(b): FIG. 12(a) Photograph of the setup for simulated photodynamic therapy using an in vitro MTT assay. FIG. 12(b): Plots of HeLa cell viability for cells covered with 0, 6, and 12 mm pork tissue on top of the cells and irradiated with CW 980 nm light at a 1 W/cm^2 power density for 20 min.
FIG. 13: Plots of HeLa cell viability for cells covered with 0, 6, and 12 mm pork tissue on top of the cells and irradiated with CW 980 nm light at a 0.35 W/cm^2 power density for 20 min.

Series [4] in a line: Body mass change of mice in in vivo PDT treatment groups. More on the design: species or system Balb/c mice. The settings on record: control and treatment groups, after 14 days. The protocol: An optical fiber-coupled 980 nm high power laser diode (Hi-Tech Optoelectronics Co., Ltd. Beijing, China) was used to irradiate tumors at a power density of about 0.5 W/cm^2 for 40 min. (1 min. interval after each minute of irradiation). The tumor sizes were measured by a caliper every other day and calculated as the volume (tumor length)×(tumor width)^2/2. The body weight of mice was also measured with every tumor measurement and percent change was calculated by the formula (observed body weight)/(body weight on day 0)×100%.
FIG. 15 is a plot of body mass change of mice in in vivo PDT treatment groups with UCNP and light exposure after 14 days. […]

For “α-NaYF4:Yb(80%),Er(2%)@CaF2 ALA [ALA-UCNPs]”, in series [1], the hydrodynamic size result is given as “about 62 nm”. Also, in series [2], the “loading capacity for 5-ALA” value is listed as “about 4.5 μmol/mg”. Moreover, the cell viability result in series [3] (6 mm pork) is “less than 50%”; in series [3] (12 mm pork, compared to the control) it was “below 80%”; in series [3] (absence of pork (0 mm)) it was “less than 20%”. This substance came in with a cell death in series [3] (through 1.2 cm of pork, CW 980 nm 0.35 W/cm^2, 20 min) of 40%. For the same substance, the body mass change result in series [4] is “no significant difference across the groups”.
